Numbers after ± are expanded uncertainties.
Assays:
[1] = 101 kPa, Liquid
[2] = wn = mass fraction of the nth substance listed; conditions: 101 kPa, Liquid

C[S+](C)[O-] [dimethyl sulfoxide]
[1]
Conditions | mass density [kg/m3] | viscosity [mPa·s]
298.15 K | 1095.41 ± 9 | 1.966 ± 0.18
303.15 K | 1090.13 ± 9.3 | 1.809 ± 0.17
308.15 K | 1085.38 ± 9.7 | 1.652 ± 0.15
313.15 K | 1080.58 ± 10 | 1.559 ± 0.15
318.15 K | 1074.5 ± 10 | 1.488 ± 0.14

C[S+](C)[O-] [dimethyl sulfoxide] + O
[2]
Conditions | mass density, 298.15 K [kg/m3] | mass density, 303.15 K [kg/m3] | mass density, 308.15 K [kg/m3] | mass density, 313.15 K [kg/m3] | mass density, 318.15 K [kg/m3] | viscosity, 298.15 K [mPa·s] | viscosity, 303.15 K [mPa·s] | viscosity, 308.15 K [mPa·s] | viscosity, 313.15 K [mPa·s] | viscosity, 318.15 K [mPa·s]
w1 = 0.2 | 1024.2 ± 16 | 1019.7 ± 17 | 1015.2 ± 18 | 998.4 ± 18 | 979.2 ± 18 | 1.34 ± 0.13 | – | 1.054 ± 0.1 | 0.9572 ± 0.095 | 0.8482 ± 0.086
w1 = 0.4 | 1053.47 ± 17 | 1052.47 ± 18 | 1045.3 ± 18 | 1040.12 ± 19 | 1038.01 ± 20 | 2.221 ± 0.2 | 2.221 ± 0.2 | 1.921 ± 0.18 | 1.618 ± 0.15 | 1.497 ± 0.14
w1 = 0.5 | 1067.81 ± 17 | 1062.43 ± 18 | 1056.4 ± 18 | 1048.28 ± 19 | 1047.52 ± 20 | 2.807 ± 0.25 | 2.465 ± 0.22 | 2.28 ± 0.21 | 2.14 ± 0.2 | 1.937 ± 0.18
w1 = 0.6 | 1082.31 ± 18 | 1081.11 ± 18 | 1072.8 ± 19 | 1065.21 ± 19 | 1057.1 ± 20 | 3.421 ± 0.3 | 3.421 ± 0.3 | 3.105 ± 0.28 | 2.846 ± 0.26 | 2.775 ± 0.25
w1 = 0.7 | 1087.32 ± 18 | 1084.92 ± 18 | 1080.83 ± 19 | 1075.23 ± 20 | 1067.12 ± 20 | 2.357 ± 0.21 | – | 2.081 ± 0.19 | 1.927 ± 0.18 | 1.865 ± 0.17
w1 = 1 | 1095.41 ± 18 | 1090.13 ± 18 | 1085.38 ± 19 | 1080.58 ± 20 | 1074.5 ± 20 | 1.966 ± 0.18 | 1.809 ± 0.17 | 1.652 ± 0.15 | 1.559 ± 0.15 | 1.488 ± 0.14
